ChEMBL document CHEMBL5291721, “A preclinical secondary pharmacology resource illuminates target-adverse drug reaction associations of marketed drugs” (Nat Commun, 2023)

Legend:
Progesterone receptor [1] = biological target: T1, Progesterone receptor (Homo sapiens, UniProt P06401); assay type: functional
T1 sequence (P06401 whole entry): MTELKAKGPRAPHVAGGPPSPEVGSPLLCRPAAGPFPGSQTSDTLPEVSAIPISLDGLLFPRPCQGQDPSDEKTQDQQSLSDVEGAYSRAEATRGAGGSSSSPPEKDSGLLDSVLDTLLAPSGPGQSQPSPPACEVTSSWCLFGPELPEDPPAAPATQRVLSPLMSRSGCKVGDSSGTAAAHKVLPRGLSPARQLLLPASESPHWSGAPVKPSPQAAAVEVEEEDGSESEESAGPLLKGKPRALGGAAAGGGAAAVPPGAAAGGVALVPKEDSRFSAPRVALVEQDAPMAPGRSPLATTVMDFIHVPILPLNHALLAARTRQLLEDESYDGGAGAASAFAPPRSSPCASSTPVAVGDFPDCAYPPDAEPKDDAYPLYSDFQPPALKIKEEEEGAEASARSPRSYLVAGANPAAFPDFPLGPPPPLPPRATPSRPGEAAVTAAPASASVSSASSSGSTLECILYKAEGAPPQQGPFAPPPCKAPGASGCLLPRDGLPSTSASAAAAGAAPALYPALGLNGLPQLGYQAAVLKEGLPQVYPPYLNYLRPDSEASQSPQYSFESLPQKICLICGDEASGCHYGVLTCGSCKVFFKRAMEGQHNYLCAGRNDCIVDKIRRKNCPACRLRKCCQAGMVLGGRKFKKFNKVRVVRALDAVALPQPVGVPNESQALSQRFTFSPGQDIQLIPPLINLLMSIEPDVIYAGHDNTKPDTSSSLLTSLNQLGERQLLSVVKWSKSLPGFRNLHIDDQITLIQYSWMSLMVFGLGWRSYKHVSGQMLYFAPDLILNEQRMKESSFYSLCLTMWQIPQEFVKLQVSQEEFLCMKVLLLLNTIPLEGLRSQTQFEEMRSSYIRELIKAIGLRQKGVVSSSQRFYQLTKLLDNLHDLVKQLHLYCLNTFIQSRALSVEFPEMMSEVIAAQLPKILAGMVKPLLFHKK

[2] = biological target: Gamma-aminobutyric acid receptor subunit alpha-1 (Rattus norvegicus, UniProt P62813)
Chain of Gamma-aminobutyric acid receptor subunit alpha-1 (P62813 whole entry): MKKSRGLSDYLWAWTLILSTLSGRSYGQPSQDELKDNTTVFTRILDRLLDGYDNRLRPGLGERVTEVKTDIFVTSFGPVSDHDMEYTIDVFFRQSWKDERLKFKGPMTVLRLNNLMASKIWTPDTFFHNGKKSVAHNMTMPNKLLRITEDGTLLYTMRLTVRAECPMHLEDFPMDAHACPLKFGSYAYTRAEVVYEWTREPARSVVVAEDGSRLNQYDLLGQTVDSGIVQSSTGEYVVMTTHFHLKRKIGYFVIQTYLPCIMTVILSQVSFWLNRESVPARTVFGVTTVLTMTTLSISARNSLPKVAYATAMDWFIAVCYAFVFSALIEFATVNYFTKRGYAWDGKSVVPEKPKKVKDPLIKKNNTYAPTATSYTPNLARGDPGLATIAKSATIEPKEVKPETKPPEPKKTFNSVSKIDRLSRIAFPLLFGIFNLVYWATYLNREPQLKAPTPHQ

Cannabinoid receptor 1 [3] = biological target: T2, Cannabinoid receptor 1 (Homo sapiens, UniProt P21554); assay type: functional, cell-based
T2 sequence (P21554 whole entry): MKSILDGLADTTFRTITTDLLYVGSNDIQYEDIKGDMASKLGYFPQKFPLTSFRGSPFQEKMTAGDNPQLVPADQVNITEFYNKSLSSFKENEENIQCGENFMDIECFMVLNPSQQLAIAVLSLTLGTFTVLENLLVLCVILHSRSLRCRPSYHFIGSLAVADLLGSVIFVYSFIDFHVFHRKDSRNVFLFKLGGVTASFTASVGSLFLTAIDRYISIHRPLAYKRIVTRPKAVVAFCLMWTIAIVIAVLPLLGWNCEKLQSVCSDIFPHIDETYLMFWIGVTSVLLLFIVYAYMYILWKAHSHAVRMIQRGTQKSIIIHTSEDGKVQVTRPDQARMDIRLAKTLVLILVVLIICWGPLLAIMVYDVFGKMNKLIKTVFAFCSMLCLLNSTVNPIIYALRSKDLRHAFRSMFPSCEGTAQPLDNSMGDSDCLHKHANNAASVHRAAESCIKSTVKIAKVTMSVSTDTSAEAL

[4] = biological target: Glutamate receptor ionotropic, NMDA 1 (Rattus norvegicus, UniProt P35439)
Cannabinoid receptor 1 [5] = biological target: T2, Cannabinoid receptor 1; assay type: functional, cell-based; remark: listed apart in the source
[6] = biological target: T3, Muscarinic acetylcholine receptor M1 (Homo sapiens, UniProt P11229); assay type: functional, cell-based
T3 sequence (P11229 whole entry): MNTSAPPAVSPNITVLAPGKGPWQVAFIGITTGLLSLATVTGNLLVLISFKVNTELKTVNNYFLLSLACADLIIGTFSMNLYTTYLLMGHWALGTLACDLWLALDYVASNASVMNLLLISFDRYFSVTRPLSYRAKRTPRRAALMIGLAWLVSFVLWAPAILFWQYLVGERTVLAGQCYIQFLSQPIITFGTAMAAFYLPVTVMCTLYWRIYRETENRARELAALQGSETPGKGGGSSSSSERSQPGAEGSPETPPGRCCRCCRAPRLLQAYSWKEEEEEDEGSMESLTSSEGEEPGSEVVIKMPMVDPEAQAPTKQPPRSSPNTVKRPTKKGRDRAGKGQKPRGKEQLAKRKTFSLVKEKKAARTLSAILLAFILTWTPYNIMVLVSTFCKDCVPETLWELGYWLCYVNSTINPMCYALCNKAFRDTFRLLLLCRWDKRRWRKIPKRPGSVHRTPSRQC

[7] = biological target: 3',5'-cyclic-AMP phosphodiesterase 4D (Homo sapiens, UniProt Q08499); assay type: functional
Chain of 3',5'-cyclic-AMP phosphodiesterase 4D (Q08499 whole entry): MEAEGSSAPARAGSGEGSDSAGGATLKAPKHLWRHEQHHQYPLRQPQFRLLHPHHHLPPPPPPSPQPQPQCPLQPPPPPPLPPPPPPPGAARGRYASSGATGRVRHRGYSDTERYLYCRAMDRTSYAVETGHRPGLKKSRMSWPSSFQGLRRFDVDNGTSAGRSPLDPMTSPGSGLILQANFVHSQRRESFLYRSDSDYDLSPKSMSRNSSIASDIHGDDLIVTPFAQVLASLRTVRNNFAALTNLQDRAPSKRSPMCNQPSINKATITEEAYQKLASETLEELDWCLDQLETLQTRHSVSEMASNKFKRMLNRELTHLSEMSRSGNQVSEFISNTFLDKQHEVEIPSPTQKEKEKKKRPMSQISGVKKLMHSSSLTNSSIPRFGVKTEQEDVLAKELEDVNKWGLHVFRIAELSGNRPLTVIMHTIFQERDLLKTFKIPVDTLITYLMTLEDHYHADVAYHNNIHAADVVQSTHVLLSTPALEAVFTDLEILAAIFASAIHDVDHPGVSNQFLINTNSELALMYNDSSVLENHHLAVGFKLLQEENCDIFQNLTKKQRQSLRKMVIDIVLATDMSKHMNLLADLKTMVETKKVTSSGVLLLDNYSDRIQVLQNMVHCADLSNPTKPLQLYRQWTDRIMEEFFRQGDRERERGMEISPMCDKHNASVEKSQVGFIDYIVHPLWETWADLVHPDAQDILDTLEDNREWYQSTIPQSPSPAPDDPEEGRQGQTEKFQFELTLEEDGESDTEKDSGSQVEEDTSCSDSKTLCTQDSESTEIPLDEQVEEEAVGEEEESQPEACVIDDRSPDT

[8] = biological target: T4, 5-hydroxytryptamine receptor 3A (Homo sapiens, UniProt P46098); assay type: functional
T4 sequence (P46098 whole entry): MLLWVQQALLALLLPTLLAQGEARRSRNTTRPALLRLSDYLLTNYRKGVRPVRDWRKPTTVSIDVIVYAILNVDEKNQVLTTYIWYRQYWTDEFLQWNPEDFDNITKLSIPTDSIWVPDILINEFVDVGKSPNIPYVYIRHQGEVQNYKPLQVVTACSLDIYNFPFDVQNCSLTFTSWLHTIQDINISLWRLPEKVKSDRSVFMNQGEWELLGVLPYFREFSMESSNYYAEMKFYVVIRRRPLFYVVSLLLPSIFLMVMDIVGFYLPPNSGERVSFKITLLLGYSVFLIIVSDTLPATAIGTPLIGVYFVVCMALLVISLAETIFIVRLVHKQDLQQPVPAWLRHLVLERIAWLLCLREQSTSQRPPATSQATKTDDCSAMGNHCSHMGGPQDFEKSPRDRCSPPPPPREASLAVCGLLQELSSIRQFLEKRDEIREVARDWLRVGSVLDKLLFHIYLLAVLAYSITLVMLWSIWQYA

Histamine H2 receptor = Histamine H2 receptor (Homo sapiens, UniProt P25021); assay type: functional, cell-based
Chain of Histamine H2 receptor (P25021 whole entry): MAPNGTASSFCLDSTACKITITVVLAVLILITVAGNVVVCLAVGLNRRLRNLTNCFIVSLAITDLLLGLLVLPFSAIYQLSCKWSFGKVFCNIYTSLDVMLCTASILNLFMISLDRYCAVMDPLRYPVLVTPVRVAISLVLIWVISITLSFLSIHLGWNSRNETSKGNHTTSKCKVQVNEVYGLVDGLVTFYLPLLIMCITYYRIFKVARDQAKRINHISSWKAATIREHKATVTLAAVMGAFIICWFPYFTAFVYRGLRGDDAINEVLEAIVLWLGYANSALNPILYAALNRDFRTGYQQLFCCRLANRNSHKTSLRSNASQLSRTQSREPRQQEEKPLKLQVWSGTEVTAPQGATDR

[9] = biological target: T5, Cholecystokinin receptor type A (Homo sapiens, UniProt P32238)
T5 sequence (P32238 whole entry): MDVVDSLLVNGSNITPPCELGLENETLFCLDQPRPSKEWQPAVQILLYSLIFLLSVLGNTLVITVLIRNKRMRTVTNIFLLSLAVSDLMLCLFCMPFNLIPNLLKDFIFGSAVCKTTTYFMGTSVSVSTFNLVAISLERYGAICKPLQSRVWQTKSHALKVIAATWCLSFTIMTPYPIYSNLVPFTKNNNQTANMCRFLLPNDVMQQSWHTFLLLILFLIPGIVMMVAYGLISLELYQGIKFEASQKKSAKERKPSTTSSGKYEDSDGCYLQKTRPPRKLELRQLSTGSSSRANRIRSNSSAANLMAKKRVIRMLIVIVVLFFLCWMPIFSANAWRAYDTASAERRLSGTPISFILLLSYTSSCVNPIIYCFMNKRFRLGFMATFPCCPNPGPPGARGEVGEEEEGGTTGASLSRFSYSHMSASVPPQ

[10] = biological target: Growth hormone secretagogue receptor type 1 (Homo sapiens, UniProt Q92847)
Chain of Growth hormone secretagogue receptor type 1 (Q92847 whole entry): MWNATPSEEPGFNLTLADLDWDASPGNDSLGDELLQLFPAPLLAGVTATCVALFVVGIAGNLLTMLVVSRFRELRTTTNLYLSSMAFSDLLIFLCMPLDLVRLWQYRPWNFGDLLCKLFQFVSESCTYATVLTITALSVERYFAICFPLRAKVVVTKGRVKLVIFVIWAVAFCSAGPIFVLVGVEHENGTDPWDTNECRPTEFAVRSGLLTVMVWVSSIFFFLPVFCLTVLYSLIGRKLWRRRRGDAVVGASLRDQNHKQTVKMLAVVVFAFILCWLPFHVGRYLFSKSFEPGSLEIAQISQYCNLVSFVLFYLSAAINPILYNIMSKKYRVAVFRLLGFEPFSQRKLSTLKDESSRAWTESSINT

Histamine H3 receptor = Histamine H3 receptor (Homo sapiens, UniProt Q9Y5N1)
Chain of Histamine H3 receptor (Q9Y5N1 whole entry): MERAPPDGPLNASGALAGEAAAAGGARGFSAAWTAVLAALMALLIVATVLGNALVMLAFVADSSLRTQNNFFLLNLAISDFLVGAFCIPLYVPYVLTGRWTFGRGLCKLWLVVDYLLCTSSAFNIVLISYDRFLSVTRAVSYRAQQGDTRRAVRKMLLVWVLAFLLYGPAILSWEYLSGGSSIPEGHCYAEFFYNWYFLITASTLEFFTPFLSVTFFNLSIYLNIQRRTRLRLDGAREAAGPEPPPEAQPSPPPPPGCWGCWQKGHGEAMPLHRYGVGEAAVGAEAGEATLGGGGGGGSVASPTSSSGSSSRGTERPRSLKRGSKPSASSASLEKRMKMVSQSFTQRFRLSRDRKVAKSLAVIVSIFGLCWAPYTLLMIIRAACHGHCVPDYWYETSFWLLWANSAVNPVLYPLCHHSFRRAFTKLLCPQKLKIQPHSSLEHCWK

Melanocortin receptor 4 = Melanocortin receptor 4 (Homo sapiens, UniProt P32245)
Chain of Melanocortin receptor 4 (P32245 whole entry): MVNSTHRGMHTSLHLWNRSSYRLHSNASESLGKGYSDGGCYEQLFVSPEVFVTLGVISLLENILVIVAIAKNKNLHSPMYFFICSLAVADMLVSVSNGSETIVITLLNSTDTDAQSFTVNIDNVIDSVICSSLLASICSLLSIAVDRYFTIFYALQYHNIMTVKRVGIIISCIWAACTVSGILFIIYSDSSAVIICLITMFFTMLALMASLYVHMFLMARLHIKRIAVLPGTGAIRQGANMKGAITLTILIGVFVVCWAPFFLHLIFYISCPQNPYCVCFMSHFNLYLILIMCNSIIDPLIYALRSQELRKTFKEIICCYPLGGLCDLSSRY

Cannabinoid receptor 1 [11] = biological target: T2, Cannabinoid receptor 1
Progesterone receptor [12] = biological target: T1, Progesterone receptor; assay type: functional; remark: listed apart in the source
Further: assay procedure not described here.

Compound | AC50 [2] | AC50 [6] | also measured
CC(=O)O[C@]1(C(C)=O)CC[C@H]2[C@@H]3C=C(C)C4=CC(=O)CC[C@@H]4[C@H]3CC[C@@]21C [NOMEGESTROL ACETATE] | 4.4 µM | > 10 µM | AC50 (Progesterone receptor [1]): 0.028 µM; AC50 (Cannabinoid receptor 1 [3]): > 30 µM; AC50 [4]: > 10 µM; AC50 (Cannabinoid receptor 1 [5]): > 30 µM; AC50 [7]: 14 µM; AC50 [8]: > 30 µM; AC50 (Histamine H2 receptor): > 30 µM
O=C1/C(=C2\Nc3ccc(S(=O)(=O)O)cc3C2=O)Nc2ccc(S(=O)(=O)O)cc21 [INDIGOTINDISULFONATE] | > 30 µM | > 30 µM | 
CC[C@H](c1ccc(O)cc1)[C@@H](CC)c1ccc(O)cc1 [HEXESTROL] | > 30 µM | > 3 µM | 
C/C=C/C/C=C/CCC(=O)[C@H]1O[C@H]1C(N)=O [CERULENIN] | > 30 µM | > 30 µM | 
Nc1ccc(C(=O)Oc2ccccc2)c(O)c1 [PHENYL AMINOSALICYLATE] | > 30 µM | 17.1 µM | 
CCc1nc(C(N)=O)c(Nc2ccc(N3CCC(N4CCN(C)CC4)CC3)c(OC)c2)nc1NC1CCOCC1 [GILTERITINIB] | > 30 µM | > 0.3 µM | 
N[C@@H](CO)C(=O)O [SERINE] | > 30 µM | > 30 µM | 
CCCN(CCC)C(=O)Cc1c(-c2ccc(Cl)cc2)nc2ccc(Cl)cn12 [ALPIDEM] | 0.02 µM | > 10 µM | AC50 [9]: > 30 µM; AC50 (Progesterone receptor [1]): > 30 µM; AC50 [10]: > 30 µM; AC50 (Histamine H3 receptor): > 30 µM; AC50 (Melanocortin receptor 4): > 30 µM; AC50 [4]: > 30 µM; AC50 [7]: 13 µM; AC50 [8]: > 30 µM; AC50 (Histamine H2 receptor): > 30 µM; AC50 (Cannabinoid receptor 1 [11]): > 30 µM; AC50 (Progesterone receptor [12]): > 30 µM
CC(C)(O)CNc1nc(Nc2ccnc(C(F)(F)F)c2)nc(-c2cccc(C(F)(F)F)n2)n1 [ENASIDENIB] | > 30 µM | 23.9 µM | 
CNC(=O)Oc1cccc2ccccc12 [CARBARIL] | > 30 µM | > 30 µM | 
OC[C@H]1O[C@@H](c2ccc(Cl)c(Cc3ccc(O[C@H]4CCOC4)cc3)c2)[C@H](O)[C@@H](O)[C@@H]1O [EMPAGLIFLOZIN] | > 30 µM | > 30 µM | 
CC[C@H]1OC(=O)[C@H](C)C(=O)[C@H](C)[C@@H](O[C@@H]2O[C@H](C)C[C@H](N(C)C)[C@H]2O)[C@](C)(OC)C[C@@H](C)C(=O)[C@H](C)[C@H]2N(CCCCn3cnc(-c4cccnc4)c3)C(=O)O[C@]12C [TELITHROMYCIN] | > 30 µM | > 30 µM | 
C=CCN1CC[C@]23CCCC[C@H]2[C@H]1Cc1ccc(O)cc13 [LEVALLORPHAN] | > 30 µM | > 30 µM | 
CC[C@H](C)C[C@H](C)CCCCCCCCC(=O)N[C@H]1C[C@@H](O)[C@@H](NCCN)NC(=O)[C@@H]2[C@@H](O)CCN2C(=O)[C@H]([C@H](O)CCN)NC(=O)[C@H]([C@H](O)[C@@H](O)c2ccc(O)cc2)NC(=O)[C@@H]2C[C@@H](O)CN2C(=O)[C@H]([C@@H](C)O)NC1=O [CASPOFUNGIN] | > 30 µM | 15.7 µM | 
